From patent US9187458B2, “Cyanoquinoline derivatives” (Tianjin Hemay Bio-Tech Co., LTD., priority 2010, dated 2015)

Key:
Sk-Br-3 cells = test: Sk-Br-3 Cell Growth Inhibition Test (SRB Assay); format: cell-based; details: Homo sapiens, 91 h incubation
Method in brief: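 Sk-Br-3 cells seeded at 10000/well in DMEM with 10% FBS were incubated overnight, then exposed to compound for 91 h at 37° C, 5% CO2. TCA-fixed cells were SRB-stained and OD read at 570 nm. GI50, TGI and LC50 were derived from growth relative to time-zero, untreated and blank wells.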

NCI-N87 cells = test: NCI-N87 Cell Growth Inhibition Test (MTT Assay); format: cell-based; details: Homo sapiens, 72 h incubation
Method: NCI-N87 Cell Growth Inhibition Test (MTT Assay)
1. Cell strains: NCI-N87 (human gastric carcinoma cell strains);
1. A plate (10 cm) of cells in logarithmic growth phase normally cultured was collected;
2. The culture solution was sucked out. The plate was washed wtih 5 ml of PBS 1-2 times;
3. PBS was sucked out. 1.5 ml of 0.25% pancreatin was added to infiltrate the cells for 1 min;
4. The pancreatin was sucked out. The culture plate was placed in an incubator. Digestion was carried out for about 12 min at 37° C.;
5. 4.5 ml of complete culture solution was added to the culture plate to stop the digestion. The cells were carefully scoured with micropipette (1 ml) to give a uniform cell suspension. The suspension was implanted into a 96-well cell culture disc by 17000 cells/100 μl per well. The culture plate was incubated overnight under 5% CO2 at 37° C. In day 2, 100 μl of culture solution comprising a compound was added in each well, and further incubated for 72 h under 5% CO2 at 37° C.
6. The culture solution was sucked out;
7. 100 μl of serum-free culture solution containing 0.5 mg/ml MTT was added in each well, and incubated for 3 h;
8. The culture solution was carefully sucked out;
9. 100 μl of DMSO was added in each welland vibrated to dissolve;
10. OD values were determined at 490 nM.
1. Calculation of Rrelative Inhibition Ratio The inhibition ratio of a compound on cell growth=(PC−n)/(PC−NC)×100%
IC50: Concentration of a compound where inhibition ratio was 50%. IC50 values were fitted with Origin7.5.

A431 cells = test: A431 Cell Growth Inhibition Test (MTT Assay); format: cell-based, human; details: Homo sapiens; for inhibition at 1 µM: A-431, 68 h, compound 1 μM, 68 h incubation, read-out: Growth Inhibition Ratio (%); for IC50: A-431, 68 h incubation
Method in brief: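 Cells seeded at 2500/well in DMEM/F12 with 10% FBS, grown overnight, then exposed to compound for 68 h at 37 °C, 5% CO2. Viability by MTT (0.5 mg/ml, 4 h), DMSO-solubilised, OD 490 nm; IC50 is concentration giving 50% growth inhibition relative to controls.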

| IC50 (A431 cells) [µM] | Compound | GI50 (Sk-Br-3 cells) [µM] | IC50 (NCI-N87 cells) [µM] | inhibition at 1 µM (A431 cells) [%] |
| --- | --- | --- | --- | --- |
| 0.053 | C#Cc1cccc(Nc2c(C#N)cnc3cc(O[C@H]4CCOC4)c(NC(=O)/C=C/CNC(C)(C)C)cc23)c1 [Example 146, (S,E)-N-(3-CYANO-4-(3-ETHYNYLPHENYLAMINO)-7-(TETRAHYDROFURAN-3-YL-OXY)QUINOLIN-6-YL)-4-(TERT-BUTYLAIMINO)-BUT-2-ENAMIDE] | 0.823 | 0.189 |  |
| 0.089 | C#Cc1cccc(Nc2c(C#N)cnc3cc(O[C@H]4CCOC4)c(NC(=O)/C=C/CN(C)Cc4ccccc4)cc23)c1 [Example 149, (S,E)-N-(3-CYANO-4-(3-ETHYNYLPHENYLAMINO)-7-(TETRAHYDROFURAN-3-YL-OXY)QUINOLIN-6-YL)-4-(N-METHYLBENZYLAMINO)-BUT-2-ENAMIDE] | 0.644 | 0.111 |  |
| 0.027 | CCN(CC)C/C=C/C(=O)Nc1cc2c(Nc3ccc(OCc4ccccn4)c(Cl)c3)c(C#N)cnc2cc1O[C@H]1CCOC1 [Example 150, (S,E)-N-(4-(3-CHLORO-4-(PYRIDIN-2-YL-METHOXY)PHENYLAMINO)-3-CYANO-7-(TETRAHYDROFURAN-3-YL-OXY)QUINOLIN-6-YL)-4-(DIETHYLAMINO)-BUT-2-ENAMIDE] | 0.011 | 0.0066 | 84 |
| 0.061 | N#Cc1cnc2cc(O[C@H]3CCOC3)c(NC(=O)/C=C/CN3CCCCC3)cc2c1Nc1ccc(OCc2ccccn2)c(Cl)c1 [Example 151, (S,E)-N-(4-(3-CHLORO-4-(PYRIDIN-2-YL-METHOXY)PHENYLAMINO)-3-CYANO-7-(TETRAHYDROFURAN-3-YL-OXY)QUINOLIN-6-YL)-4-(PIPERIDIN-1-YL)-BUT-2-ENAMIDE] | 0.017 | 0.016 |  |
| 0.062 | N#Cc1cnc2cc(O[C@H]3CCOC3)c(NC(=O)/C=C/CN3CCOCC3)cc2c1Nc1ccc(OCc2ccccn2)c(Cl)c1 [Example 152, (S,E)-N-(4-(3-CHLORO-4-(PYRIDIN-2-YL-METHOXY)PHENYLAMINO)-3-CYANO-7-(TETRAHYDROFURAN-3-YL-OXY)QUINOLIN-6-YL)-4-(MORPHOLIN-4-YL)-BUT-2-ENAMIDE] | 0.019 | 0.02 |  |
| 0.053 | CC(C)(C)NC/C=C/C(=O)Nc1cc2c(Nc3ccc(OCc4ccccn4)c(Cl)c3)c(C#N)cnc2cc1O[C@H]1CCOC1 [Example 153, (S,E)-N-(4-(3-CHLORO-4-(PYRIDIN-2-YL-METHOXY)PHENYLAMINO)-3-CYANO-7-(TETRAHYDROFURAN-3-YL-OXY)QUINOLIN-6-YL)-4-(TERT-BUTYLAMINO)-BUT-2-ENAMIDE] | 0.0068 | 0.015 |  |

Continued, molecule first:

| Compound | IC50 (A431 cells) [µM] | GI50 (Sk-Br-3 cells) [µM] | IC50 (NCI-N87 cells) [µM] | inhibition at 1 µM (A431 cells) [%] |
| --- | --- | --- | --- | --- |
| C#Cc1cccc(Nc2c(C#N)cnc3cc(O[C@H]4CCOC4)c(NC(=O)/C=C/CN(C)C)cc23)c1 [Example 140, (S,E)-N-(3-CYANO-4-(3-ETHYNYLPHENYLAMINO)-7-(TETRAHYDROFURAN-3-YL-OXY)QUINOLIN-6-YL)-4-(DIMETHYLAMINO)-BUT-2-ENAMIDE] | 0.026 | 0.022 | 0.015 | 87 |
| C#Cc1cccc(Nc2c(C#N)cnc3cc(O[C@@H]4CCOC4)c(NC(=O)/C=C/CN(C)C)cc23)c1 [Example 141, (R,E)-N-(3-CYANO-4-(3-ETHYNYLPHENYLAMINO)-7-(TETRAHYDROFURAN-3-YL-OXY)QUINOLIN-6-YL)-4-(DIMETHYLAMINO)-BUT-2-ENAMIDE] | 0.05 | 0.039 | 0.032 | 80 |
| CN(C)C/C=C/C(=O)Nc1cc2c(Nc3ccc(F)c(Cl)c3)c(C#N)cnc2cc1O[C@H]1CCOC1 [Example 142, (S,E)-N-(4-(3-CHLORO-4-FLUOROPHENYLAMINO)-3-CYANO-7-(TETRAHYDROFURAN-3-YL-OXY)QUINOLIN-6-YL)-4-(DIMETHYLAMINO)-BUT-2-ENAMIDE] | 0.045 | 0.117 | 0.075 | 75 |
| C#Cc1cccc(Nc2c(C#N)cnc3cc(O[C@H]4CCOC4)c(NC(=O)/C=C/CN(CC)CC)cc23)c1 [Example 143, (S,E)-N-(3-CYANO-4-(3-ETHYNYLPHENYLAMINO)-7-(TETRAHYDROFURAN-3-YL-OXY)QUINOLIN-6-YL)-4-(DIETHYLAMINO)-BUT-2-ENAMIDE] | 0.059 | 0.231 | 0.089 | 70 |
| C#Cc1cccc(Nc2c(C#N)cnc3cc(O[C@H]4CCOC4)c(NC(=O)/C=C/CN4CCCCC4)cc23)c1 [Example 144, (S,E)-N-(3-CYANO-4-(3-ETHYNYLPHENYLAMINO)-7-(TETRAHYDROFURAN-3-YL-OXY)QUINOLIN-6-YL)-4-(PIPERIDIN-1-YL)-BUT-2-ENAMIDE] | 0.026 | 0.202 | 0.098 |  |
| C#Cc1cccc(Nc2c(C#N)cnc3cc(O[C@H]4CCOC4)c(NC(=O)/C=C/CN4CCOCC4)cc23)c1 [Example 145, (S,E)-N-(3-CYANO-4-(3-ETHYNYLPHENYLAMINO)-7-(TETRAHYDROFURAN-3-YL-OXY)QUINOLIN-6-YL)-4-(MORPHOLIN-4-YL)-BUT-2-ENAMIDE] | 0.071 | 0.831 | 0.346 |  |
